System: hepatocytes
Assay: Seq-Well scRNA-Seq of hepatocytes after APAP overdose (signature scores, DEG vs untreated)
Format: in vivo, mouse
[1] = hepatocyte cluster A96 (APAP, 96 h) vs all other clusters
[2] = hepatocytes, cluster A24 (APAP) vs other treatment clusters
[3] = hepatocytes, cluster A48 (APAP) vs other treatment clusters

CC(=O)Nc1ccc(O)cc1 [APAP, acetaminophen]
avg_logFC Fmo1 [1]: 0.2535 | avg_logFC Gclm [1]: 0.269 | avg_logFC Hamp2 [1]: 0.2597 | avg_logFC Hsd17b7 [1]: 0.3023 | avg_logFC Lcat [1]: 0.2519 | avg_logFC Mocs2 [1]: 0.2666 | avg_logFC Mtdh [1]: 0.2838 | avg_logFC Ndufa3 [1]: 0.2765 | avg_logFC Ndufb2 [1]: 0.3005 | avg_logFC Nfe2l2 [1]: 0.2513 | avg_logFC Oat [1]: 0.3213 | avg_logFC Pabpc1 [1]: 0.2527 | avg_logFC Pdk1 [1]: 0.2558 | avg_logFC Prkd3 [1]: 0.2593 | avg_logFC Ptp4a2 [1]: 0.2634 | avg_logFC Rgn [1]: 0.291 | avg_logFC Sdhc [1]: 0.2722 | avg_logFC Sdhd [1]: 0.261 | avg_logFC Slc4a4 [1]: 0.2916 | avg_logFC Slc25a10 [1]: 0.2605 | avg_logFC Tgoln1 [1]: 0.2968 | avg_logFC Tmed5 [1]: 0.2563 | avg_logFC Tmem106b [1]: 0.2604 | avg_logFC Tob1 [1]: 0.301 | avg_logFC Tsc22d3 [1]: 0.3181 | avg_logFC Usmg5 [1]: 0.2565 | avg_logFC Zfp91 [1]: 0.3255 | AA474408 avg_logFC [2]: 0.4148 | Abca1 avg_logFC [2]: 0.3831 | Acox1 avg_logFC [2]: 0.2743 | Acsl4 avg_logFC [2]: 0.299 | Adh4 avg_logFC [2]: 0.392 | Ak3 avg_logFC [2]: 0.2504 | Aox3 avg_logFC [2]: 0.3489 | Arcn1 avg_logFC [2]: 0.3044 | Atp8b1 avg_logFC [2]: 0.361 | Atp11c avg_logFC [2]: 0.2568 | Atxn1 avg_logFC [2]: 0.325 | Calm1 avg_logFC [2]: 0.3702 | Calu avg_logFC [2]: 0.3005 | Canx avg_logFC [2]: 0.2771 | Cltc avg_logFC [2]: 0.3397 | Cmah avg_logFC [2]: 0.4243 | Copa avg_logFC [2]: 0.3334 | Cps1 avg_logFC [2]: 0.2775 | Ctnnb1 avg_logFC [2]: 0.329 | Cyb5r3 avg_logFC [2]: 0.3097 | Ddost avg_logFC [2]: 0.2909 | Dhcr24 avg_logFC [2]: 0.2824 | Dnajb11 avg_logFC [2]: 0.3288 | Dnajc12 avg_logFC [2]: 0.324 | Echdc1 avg_logFC [2]: 0.2818 | Edem1 avg_logFC [2]: 0.2675 | Efna1 avg_logFC [2]: 0.3161 | Eif4g1 avg_logFC [2]: 0.2763 | Eif4g2 avg_logFC [2]: 0.3515 | Eprs avg_logFC [2]: 0.2513 | Etnk1 avg_logFC [2]: 0.3194 | Fam120a avg_logFC [2]: 0.2583 | Fasn avg_logFC [2]: 0.2699 | Fndc3b avg_logFC [2]: 0.3202 | Fos avg_logFC [2]: 0.3632 | Gjb2 avg_logFC [2]: 0.2998 | Gm5424 avg_logFC [2]: 0.262 | Gm24245 avg_logFC [2]: 0.414 | Grlf1 avg_logFC [2]: 0.2556 | Hnf4a avg_logFC [2]: 0.2549 | Hs3st3b1 avg_logFC [2]: 0.3219 | Hsd3b5 avg_logFC [2]: 0.3009 | Hspa13 avg_logFC [2]: 0.342 | Ibtk avg_logFC [2]: 0.2959 | Il6st avg_logFC [2]: 0.3011 | Il13ra1 avg_logFC [2]: 0.2889 | Insig1 avg_logFC [2]: 0.4125 | Kmo avg_logFC [2]: 0.2687 | Lasp1 avg_logFC [2]: 0.2608 | Lgr4 avg_logFC [2]: 0.2572 | Lpgat1 avg_logFC [2]: 0.2525 | Lrg1 avg_logFC [2]: 0.3096 | Lrp1 avg_logFC [2]: 0.4837 | Lrrc59 avg_logFC [2]: 0.2688 | Met avg_logFC [2]: 0.2512 | Mlec avg_logFC [2]: 0.3405 | Mtss1 avg_logFC [2]: 0.2522 | Mtus1 avg_logFC [2]: 0.3125 | Mug2 avg_logFC [2]: 0.3166 | Nab1 avg_logFC [2]: 0.2601 | Nars avg_logFC [2]: 0.3127 | Nedd4 avg_logFC [2]: 0.3305 | Nr1d2 avg_logFC [2]: 0.3855 | Nr5a2 avg_logFC [2]: 0.2599 | Nrp1 avg_logFC [2]: 0.33 | Ostc avg_logFC [2]: 0.3082 | Prg4 avg_logFC [2]: 0.4007 | Prkd3 avg_logFC [2]: 0.3041 | Proz avg_logFC [2]: 0.28 | Pten avg_logFC [2]: 0.2663 | Ptprf avg_logFC [2]: 0.2888 | Qsox1 avg_logFC [2]: 0.2817 | Rab1 avg_logFC [2]: 0.3145 | Rpn1 avg_logFC [2]: 0.3991 | Rrbp1 avg_logFC [2]: 0.2968 | Sdf2l1 avg_logFC [2]: 0.3078 | Sec31a avg_logFC [2]: 0.2596 | Sec61b avg_logFC [2]: 0.3008 | Sel1l avg_logFC [2]: 0.2833 | Sh3bgrl avg_logFC [2]: 0.2668 | Slc3a1 avg_logFC [2]: 0.3074 | Slc38a10 avg_logFC [2]: 0.2557 | Spcs3 avg_logFC [2]: 0.3907 | Srebf1 avg_logFC [2]: 0.3149 | Srp72 avg_logFC [2]: 0.28 | Srpr avg_logFC [2]: 0.2914 | Ssr1 avg_logFC [2]: 0.3129 | Stard4 avg_logFC [2]: 0.2922 | Stt3b avg_logFC [2]: 0.2648 | Tmed7 avg_logFC [2]: 0.3715 | Tmem30a avg_logFC [2]: 0.3056 | Trip12 avg_logFC [2]: 0.2832 | Txndc5 avg_logFC [2]: 0.2758 | Uggt1 avg_logFC [2]: 0.2805 | Uso1 avg_logFC [2]: 0.3202 | Usp4 avg_logFC [2]: 0.2959 | Usp9x avg_logFC [2]: 0.3387 | Zbtb20 avg_logFC [2]: 0.3135 | Abcb4 avg_logFC [3]: 0.4425 | Abcd2 avg_logFC [3]: 0.2813 | Abhd14b avg_logFC [3]: 0.4059 | Acad11 avg_logFC [3]: 0.3851 | Agt avg_logFC [3]: 0.5795 | Ahcy avg_logFC [3]: 0.34 | Ahsg avg_logFC [3]: 0.3592 | Aldh9a1 avg_logFC [3]: 0.3826 | Aldob avg_logFC [3]: 0.4375 | Ambp avg_logFC [3]: 0.286 | Amy1 avg_logFC [3]: 0.4216 | Angptl3 avg_logFC [3]: 0.6111 | Apoa5 avg_logFC [3]: 0.4483 | Apoc2 avg_logFC [3]: 0.8639 | Apoc3 avg_logFC [3]: 0.407 | Apoe avg_logFC [3]: 0.5049 | Apoh avg_logFC [3]: 0.4628 | Atp5b avg_logFC [3]: 0.3281 | Atp5h avg_logFC [3]: 0.5978 | Bfar avg_logFC [3]: 0.308 | Bnip3 avg_logFC [3]: 0.462 | Cdo1 avg_logFC [3]: 0.3971 | Cebpb avg_logFC [3]: 0.3684 | Ces1b avg_logFC [3]: 0.483 | Ces1c avg_logFC [3]: 0.5488 | Chchd10 avg_logFC [3]: 0.7517 | Cox5a avg_logFC [3]: 0.4197 | Cox8a avg_logFC [3]: 0.552 | Cp avg_logFC [3]: 0.4274 | Cyp4a10 avg_logFC [3]: 0.9326 | Cyp4a14 avg_logFC [3]: 1.281 | Dbp avg_logFC [3]: 0.2896 | Ddb1 avg_logFC [3]: 0.3544 | Decr1 avg_logFC [3]: 0.5669 | Decr2 avg_logFC [3]: 0.4129 | Ech1 avg_logFC [3]: 0.418 | Echs1 avg_logFC [3]: 0.4649 | Ephx2 avg_logFC [3]: 0.3869 | F2 avg_logFC [3]: 0.3952 | F10 avg_logFC [3]: 0.3927 | F12 avg_logFC [3]: 0.388 | Fah avg_logFC [3]: 0.3913 | Fcgrt avg_logFC [3]: 0.4084 | Fkbp5 avg_logFC [3]: 0.2572 | Fth1 avg_logFC [3]: 0.375 | Gabarap avg_logFC [3]: 0.4014 | Gc avg_logFC [3]: 0.2979 | Gltscr2 avg_logFC [3]: 0.3432 | Gm6484 avg_logFC [3]: 0.4108 | Gm23935 avg_logFC [3]: 0.4738 | Grn avg_logFC [3]: 0.431 | Gstt3 avg_logFC [3]: 0.3384 | Gys2 avg_logFC [3]: 0.4231 | Hdac11 avg_logFC [3]: 0.3557 | Herpud1 avg_logFC [3]: 0.6044 | Hmgcl avg_logFC [3]: 0.5501 | Hmgcs2 avg_logFC [3]: 0.7687 | Hpx avg_logFC [3]: 0.3851 | Hrg avg_logFC [3]: 0.5316 | Hsd17b13 avg_logFC [3]: 0.6221 | Hspa8 avg_logFC [3]: 0.4107 | Khk avg_logFC [3]: 0.5202 | Lcat avg_logFC [3]: 0.5054 | Lims2 avg_logFC [3]: 0.3761 | Lpin1 avg_logFC [3]: 0.515 | Mat1a avg_logFC [3]: 0.7753 | Mfsd2a avg_logFC [3]: 0.6614 | Mlycd avg_logFC [3]: 0.4378 | Ndrg2 avg_logFC [3]: 0.3482 | Nr1i3 avg_logFC [3]: 0.4759 | Oaf avg_logFC [3]: 0.5021 | P4hb avg_logFC [3]: 0.2981 | Pabpc1 avg_logFC [3]: 0.4782 | Plin5 avg_logFC [3]: 0.3985 | Pnpla2 avg_logFC [3]: 0.3465 | Prodh2 avg_logFC [3]: 0.5055 | Rbp4 avg_logFC [3]: 0.3942

Reference: patent publication US20230053540A1, “TREATMENT OF LIVER INJURY” (Massachusetts Institute of Technology, priority 2019, published 2023)
